Laboratory results taken from US9023853B2, “Janus kinase 2 (JAK2) inhibitor for the treatment of lupus” (Cephalon, Inc., priority 2010, dated 2015).

Assays:
Type in all cases: in vivo, mouse
KC/IL-8 = experiment: Serum KC/IL-8 in NZM mice
Method: (§1) For the processing of serum samples for cytokine analysis, frozen plasma at −80° C. was thawed on ice, vortexed, and centrifuged for 10 minutes to remove debris and aggregates. A total of 25-50 μL of serum was used for Luminex® assays following the manufacturer's instructions. Ten different mouse cytokines were measured using the mouse cytokine 10-plex bead kit (Invitrogen, Carlsbad, Calif., no. LMC0001). Briefly, filter plates (Millipore, Billerica, Mass., no. MAIPSWU10), were pre-wet with 200 μL of wash solution (kit component) and 25 μL of beads were added per well. […]
(§2) Age mated, female, NZM or NZW/LacJ, mice were matured for the study of lupus nephritis for a total of 7 months or 210 days at which time urine was collected for proteinuria detection. Mice with 0.5-1.0 mg/ml of urine protein as determined by an optical density-based total protein precipitation assay and cross-checked for 30-300 mg/dl of protein as determined by a stick assay were considered proteinuria positive and selected for study entry. […] End-stage lupus nephritis was evaluated by histopathology and scored by a board certified pathologist for the assessment of total renal damage in diseased animals using the scoring method described by Smith et al (Smith, Dong et al. 2007). […]

CXCL9/MIG = experiment: Serum CXCL9/MIG in NZM mice
Method: as §1, §2

TNFα = experiment: Serum TNFα in NZM mice
Method: as §1, §2

plasma cells = experiment: Spleen plasma cells by flow cytometry in MRL/lpr mice; settings: 100 mg/kg, p<0.01
Method: Antibodies used for flow cytometry consisted of anti-mouse CD138-APC (eBioscience, San Diego, Calif.), anti-mouse CD19-FITC (eBioscience, San Diego, Calif.), anti-mouse CD38-PE (eBioscience, San Diego, Calif.) and anti-mouse CD45R/B220-Cyc (eBioscience, San Diego, Calif.), Rat IgG1-APC isotype control (eBioscience, San Diego, Calif.), Rat IgG2a-PE isotype control (eBioscience, San Diego, Calif.). All samples were analyzed using an Accuri C6 Flow Cytometer. Complete media was used for all experiments involving the ex vivo culture of splenocytes for all Elispot experiments. Complete media consisted of RPMI1640 (Cellgro, Manassas, Va.), plus 1% Pen-Strep (Cellgro, Manassas, Va.), 1% L-Gln (Cellgro, Manassas, Va.), 1% NEAA (Cellgro, Manassas, Va.), β-ME (Cellgro, Manassas, Va.), plus 10% FBS (Cellgro, Manassas, Va.).
Washed, RBC-lysed splenocytes were stained for plasma cell markers as previously used in published reports (Neubert, Meister et al. 2008). As used herein the term “plasma cell” will refer to the following immunophenotype definition: Plasma cells were defined as live CD19-negative, CD45R/B220-negative, CD138-positive, CD38-positive events for the MRL/lpr model. A total of 200,000-500,000 events were collected per tube/sample. Insufficient sample limited plasma cell determination in bone marrow. […]

In the case of `CN1CCN(c2cccc(Nc3nc4c(-c5ccc(S(C)(=O)=O)cc5)cccn4n3)c2)CC1` [COMPOUND A, [8-(4-methanesulfonyl-phenyl)-[1,2,4]triazolo[1,5-a]pyridin-2-yl]-[3-(4-methyl-piperazin-1-yl)-phenyl]-amine], the “serum KC/IL-8 decrease compared to vehicle” value (KC/IL-8; 55 mg/kg) is reported as 78.0%, the “serum KC/IL-8 decrease compared to vehicle” value (KC/IL-8; 100 mg/kg) is reported as 72.9% and the “serum CXCL9/MIG decrease compared to vehicle” value (CXCL9/MIG; 55 mg/kg) is reported as 83.7%. For the same compound, the “serum CXCL9/MIG decrease compared to vehicle” value (CXCL9/MIG; 100 mg/kg) was 85.7%, the “serum TNFα decrease compared to vehicle” value (TNFα; 55 mg/kg) was 92.3% and the “serum TNFα decrease compared to vehicle” value (TNFα; 100 mg/kg) was 88.3%. The “spleen plasma cells decrease vs vehicle” value (plasma cells) was 65.5%.
